Data set [1] is described as follows: refractive index (Na D-line) (dimensionless). The settings on record: 293.15 K; 101.33 kPa; Liquid; Standard Abbe refractometry.
For data set [2] the following is noted: 101.33 kPa, Liquid, Vibrating tube method.

Two compounds from the NIST ThermoML archive (doi:10.1016/j.jct.2013.01.033) can be followed below.

Numbers after ± are expanded uncertainties.

One may read the refractive index as the speed of light in vacuum divided by its phase velocity in the sample. In general, mass density refers to mass per unit of volume.

Turning to `CCCO` [propan-1-ol], the refractive index in data set [1] came to 1.38432 ± 0.0007.

On to `CCCC[N+]1(C)CCCC1.N#CC(=C=[N-])C#N` [1-butyl-1-methylpyrrolidinium tricyanomethanide], for which the mass density in data set [2] (298.15 K) turned out to be 1006.71 ± 0.85 kg/m3; in data set [2] (308.15 K), 1000.55 ± 0.84 kg/m3; in data set [2] (318.15 K), 994.44 ± 0.83 kg/m3; in data set [2] (328.15 K) it was 988.41 ± 0.82 kg/m3; in data set [2] (338.15 K), 982.44 ± 0.82 kg/m3; in data set [2] (348.15 K), 976.52 ± 0.81 kg/m3.
